Experimental data from patent US20250346588A1, “IMIDAZOPYRIDINE AND OXAZOLOPYRIDINE DERIVATIVES AND ANALOGS THEREOF, METHODS OF PREPARATION THEREOF, METHODS OF HIF-1/2A PATHWAY INHIBITION, AND INDUCTION OF FERROPTOSIS” (KUDA THERAPEUTICS, INC., priority 2022, published 2025).

Tests used:
786-0 ccRCC cells = test: ICP-MS of cellular iron, zinc and copper; type: cell-based, human; details: 786-0 cells, 2.5 μM compound
Protocol: These studies were performed to determine the content of iron and other transition metals in cells after exposure the compounds described herein. 786-0 cells were seeded at 1.5 million cells/flask in T75 cm^2 flasks in DMEM+10% FBS, and allowed to adhere overnight. Cells were then treated with indicated concentrations of compounds in DMSO or DMSO alone (vehicle) for a further 24 h, after which cells were detached by trypsinization, counted, washed twice in phosphate-buffered saline (PBS) and pelleted. Experiments were performed using three replicate T75 cm^2 flasks per condition. A 5:1 mixture of nitric acid (OPTIMA Grade, 70%, Fisher Scientific) and ultrapure hydrogen peroxide (ULTREX II, 30%, Fisher Scientific) was added to cell pellets. This mixture was allowed to digest overnight, heated until dry, and resuspended in 2% nitric acid for analysis using an Agilent 7900 ICP-MS (Agilent Technologies, Santa Clara, CA). Calibration standard solutions for determination of Fe were prepared from Agilent multi-element calibration standard-2A. An Agilent Environmental Calibration Standard was used as an independent control. PBS-only control digestions were used to measure background. Metal readings were normalized to cell number. Data obtained from these studies for three replicate readings (with SEM) are shown in FIG. 3, which show an increase in cellular iron (Fe) content after treatment with indicated compounds.

Bioavailability studies = type: in vivo; details: mouse, in vivo, Swiss albino mice
786-0 cells [1] = test: Resazurin cell viability assay, with or without DFO and other inhibitors; type: cell-based, human
Protocol: (§1) Screens for inhibitory activity of compounds described herein were performed using 786-0 ccRCC cells that stably express HRE-Luc: 5 copies of the hypoxia-responsive element (HRE) fused to the pGL3 luciferase reporter (Promega Corp, Madison WI). 786-0 cells are pVHL deficient and thus constitutively express HIF-2α independently of cellular oxygen tension. Since 786-0 cells lack HIF-1α, HRE-driven luciferase activity is primarily HIF-2α driven, and has been previously validated. Cells were maintained at log phase growth in […] (DMEM) with 10% FBS in a humidified incubator at 37° C. with 5% CO2. For screening assays, cells were seeded at a density of 4,000 cells in 50 μl of complete media/well in quadruplicate wells/point in a 96-well plate. After 24 h, 50 μl of a 2× concentration of test compound was added to each well. Compounds were diluted from a 5-10 mM stock in DMSO and final concentrations of DMSO in each well in controls and treated wells were kept constant at ≤0.6% DMSO. After 24 h treatment, luciferase activity was measured using the Steady-Glo Luciferase assay system (Promega Corp) according to the manufacturer's protocol. Cell viability was measured in quadruplicate parallel wells using resazurin as recommended by the manufacturer (R&D systems, Minneapolis, MN). Data for luciferase and resazurin were normalized to DMSO treated controls (defining 100%) and wells containing assay reagent but no cells (defining 0%) and graphed using the log inhibitor versus normalized response option in Graphpad Prism 9.3.1 software. Representative data determined using Steady-Glo luciferase and resazurin are shown in FIGS. 1A and 1B respectively, with error bars showing SD. Filled diamonds, empty squares and empty triangles indicate treatment with 3, 8 and 22 respectively with results for HRE-Luc shown in FIG. 1A.
In view of the increased cellular iron concentrations induced by the compounds described herein, the involvement of iron in mediating cell death was determined. Cell viability assays were performed as described in Example 2 using resazurin as a cell viability readout and performed in the absence or presence of 100 μM of the iron chelator, DFO (D9533, MilliporeSigma, St Louis, MO). […] Viability IC50 values are shown in brackets.

786-0 cells [2] = test: TBARS assay of lipid peroxidation (MDA); type: cell-based, human; details: 48h treatment
Protocol: Malondialdehyde (MDA) is an end product of lipid peroxidation products and can be used to indicate lipid peroxidation, which is a hallmark of ferroptosis. MDA adducts were quantitated in cells and tumor tissue using the TBARS-TCA Method kit (Cat 700870, Cayman Chemicals, Ann Arbour Michigan) according to the manufacturer's protocol. Briefly, 786-0 cells were seeded at 1.75×10E6 cells in T75 cm^2 flasks, allowed to adhere overnight in a humidified incubator at 37° C. with 5% CO2, then treated with test compounds for 48 h, RSL3 (as positive control for 6h) or DMSO control (volume of DMSO kept constant for all flasks). Cells were detached by trypsinization, pelleted by centrifugation, washed in PBS twice, resuspended in 200 μL PBS, then sonicated for 3 minutes in a sonicating water bath. Representative data showing effects of 26HCL or 62TFA in comparison to RSL3, a classical ferroptosis inducer, is shown in FIG. 5. For MDA quantitation in tumor chunks, 20-50 mg of tumor tissue was homogenized in 200-500 μL of PBS, then sonicated for 5 minutes in a sonicating water bath. The cell or tumor lysates were subjected to the colorimetric detection methods described in manufacturer's protocol. MDA concentration of cells was determined in comparison to a standard curve of MDA stock solution provided by the manufacturer. Data was plotted using Prism GraphPad 9.3.1 Software. […]

[3] = system: HIF-2α Iron-Responsive Element (IRE); test: HIF-2α IRE-Luc reporter assay; type: cell-based, human; details: 786-0 cells stably expressing HIF-2α IRE-Luc, 24h
Protocol: as §1, with “Compounds were diluted from a 5-10 mM stock in DMSO and final concentrations of DMSO in each well in controls and treated wells were kept constant at ≤0.6% DMSO.” left out, “Data for luciferase and resazurin were normalized to DMSO treated controls (defining 100%) and wells containing assay reagent but no cells (defining 0%) and graphed using the log inhibitor versus normalized response option in Graphpad Prism 9.3.1 software.” left out, “Filled diamonds, empty squares and empty triangles indicate treatment with 3, 8 and 22 respectively with results for HRE-Luc shown in FIG. 1A.” left out

[4] = system: HIF target genes VEGFA and POU5F1; test: qPCR of HIF target genes; type: cell-based, human; details: FIG. 2C
Protocol: For qPCR, cells seeded as described above were harvested for RNA isolation using the RNA Clean and Concentrator kit (Zymo Research, Irvine CA) according to the manufacturer's protocol. cDNA was prepared using the High Capacity […] kit from Thermo Fisher Scientific (Waltham, […]). qRT-PCR was performed using pre-designed Taqman Gene Expression assay primer/probes and master mix (Thermo Fisher Scientific) according to the manufacturer's protocol using the QuantStudio 3 Real-Time PCR System (ThermoFisher). Relative changes in gene expression normalized to the control gene, […] was determined using the ΔΔCt method.

COc1ccc(-c2nnc(Nc3nc4c(OC)nccc4[nH]3)o2)cc1OC [Compound 26HCL, N-(4-Methoxy-1H-imidazo[4,5-c]pyridin-2-yl)-5-(3,4-dimethoxyphenyl)-1,3,4-oxadiazol-2-amine]
cellular iron (Fe), zinc (Zn) and copper (Cu) content (786-0 ccRCC cells): increases the content of iron, zinc and copper in cells | bioavailability (Bioavailability studies; oral, read-out: Bioavailability F): 27.3% | half-life (Bioavailability studies; read-out: half-life (converted)): 3.61 h | mechanism of cell death (786-0 cells [1]; 24h, co-treatment with DFO, NAC, liproxstatin or ZVAD-FMK): iron-oxidant dependent and apoptosis/caspase-independent mechanism of cell death | effect of DFO co-treatment on compound-mediated loss of cell viability (786-0 cells [1]; DFO 100 μM, FIG. 4B): protective effects of DFO | lipid peroxidation (MDA-TBA adducts) (786-0 cells [2]): induce lipid peroxidation to an extent comparable to the ferroptosis inducer RSL3 | effect on IRE-luciferase reporter activity normalized to resazurin [3]: decrease IRE-mediated translation of HIF-2α | effect on transcription of HIF target genes (VEGFA, POU5F1) [4]: decrease transcription of HIF target genes
